Measured values as given in patent publication US20110059104A1, “Apo-2L receptor agonist and CPT-11 synergism” (Genentech, Inc., priority 2000, published 2011).
“Also recorded” adds a separate entry of the source. Where a SMILES comes first, the peptide text is derived from it. The star is where a group is joined. Cbz = O=C(OCc1ccccc1)*; CH2F = FC*

How the values were obtained:
[1] = system: HCT116 colon cancer cells; assay: AlamarBlue cell viability assay; type: cell-based, human; details: 24 hours; CPT-11 50 μg/ml, Apo2L/TRAIL 1 μg/ml
Method: (§1) An AlamarBlue™ assay was used to determine the cell viability. HCT116 colon cancer cells (˜10000 cells/well) were incubated overnight in 10% FBS RPMI 1640 medium in 96-well tissue culture plates. […] AlamarBlue™ was added to the wells for the last 6 hours of the 24 hours incubation time. Fluorescence was read using 96-well fluorometer plate reader with an excitation of 530 nm and emission of 590 nm (CytoFluor multi-well plate reader series 4000, PerSeptive Biosystems; Framingham, Mass.). In addition, the Molecular probes Live/Dead^R viability/cytotoxicity kit (Eugene, Oreg.) was used to evaluate the presence of live or dead cells. In these assays, Calcein-Am (4 μM) and ethidium homodimer-1 (2 μM) were added to treated cells 15 minutes before inspecting the cultures under an Axiovert 25 (Zeiss; Thornwood, N.Y.) fluorescence microscope equipped with fluorescein (calcein) and rhodamine (ethidium homodimer-1) filters.

HCT116 cells [2] = assay: Live/Dead viability/cytotoxicity fluorescence microscopy (calcein-AM, ethidium homodimer-1); type: cell-based, human
Method: as §1

DR5 mRNA in HCT116 cells = assay: bDNA assay of DR5 mRNA; type: cell-based, human
Method: The specificity of the probes was tested using RNA from in vitro transcription using recombinant DcR1, DcR2, DR4 and DR5 constructs.

DR4 mRNA in HCT116 cells = assay: bDNA assay of DR4 mRNA; type: cell-based, human
Source text: Total RNA was isolated using the RNA stat-60™ solution (Tel-Test, Inc (Friendsweed, Tex.) according to manufacturer's instruction. The Quantigene bDNA™ signal amplification kit (Chiron diagnostics; East Walpole, Mass.) was used to evaluate mRNA levels. The sequence of GAPDH probe sets was as recommended by the manufacturer. The DR4 probe sets were lined within the region of nucleic acid residues 9 to 582. There were 5 capture probes, 16 labeling probes and 8 blocking probes. The DR5 probe sets were lined within the region of nucleic acid residues 13-591. There were 5 capture probes, 17 labeling probes and 5 blocking probes for DR5. The specificity of the probes was tested using RNA from in vitro transcription using recombinant DcR1, DcR2, DR4 and DR5 constructs. Both DR4 and DR5 probe sets were highly specific for their own RNA transcripts. The signal from each probe sets was linear with the concentrations tested. bDNA assays were performed according to manufacturer's instructions using about 2 μg of total RNA/well.

[3] = system: p53 protein in HCT116 cells; assay: p53 protein western blot, HCT116; type: cell-based, human; details: HCT116 tumor cells; 2 and 24 hours; hydrochloride trihydrate
Method: (§2) For Western blotting, cells were lysed in 20 mM Tris-HCl, pH 7.4 containing 10% glycerol, 1% Triton-x100, 150 mM NaCl and protease inhibitors (1 mM PMSF, 10 μg/ml Aprotinin, 10 μg/ml Leupeptin, Sigma). Aliquots of 50 μg of total protein per well were separated in a NuPAGE 4-12% Bis-Tris gel with NuPAGE MES SDS running buffer (Novex; San Diego, Calif.). The gels were transferred to […] pure nitrocellulose membrane (Bio-Rad) by semi-dry transfer cell (Bio-dad; Hercules, Calif.) with NuPAGE transfer buffer. The membranes were blocked with PBS containing 5% nonfat dry milk and incubated with primary antibodies against the proteins of interest followed by a horseradish […] secondary antibody (Amersham; Braunschweig, Germany). Immunoreactivo bands were visualized by the enhanced chemiluminescencesystem (Amersham; Braunschweig, Germany). The antibodies used in this study were: Anti-caspase-3 (Stratagene, #200021; La Jolla, Calif.), anti-p53 and anti-p21 (Oncogene, #0P43 and #0P64; Cambridge, Mass.), and anti-FLIP (#343002, Calbiochem, San Diego, Calif.). The antibodies were used at the concentrations recommended by the manufacturers.

[4] = system: p53 protein in HUVEC cells; assay: p53 protein western blot, HUVEC; type: cell-based, human; details: normal HUVEC cells; 2 and 24 hours; hydrochloride trihydrate
Method: as §2

[5] = system: p21 protein in HCT116 cells; assay: p21 protein western blot, HCT116; type: cell-based, human
Method: as §2

[6] = system: p21 protein in HUVEC cells; assay: p21 protein western blot, HUVEC; type: cell-based, human; details: normal HUVEC cells; 24 hours
Method: as §2

HCT116 cells [7] = assay: Flow cytometric cell cycle analysis, HCT116; type: cell-based, human
Method: Cell cycle analysis was performed via FACS analysis. HCT116 and HUVEC cells were incubated and treated as described in the figure legends. After the treatments, both floating cells in the medium aid live cells in the plate were collected. Cycle TEST PLUS DNA™ reagent kit (Beckon Dickinson; San Jose, Calif.) was used to stain cells according to manufacturer's instruction. The stained cells were analyzed in a FACS sorter (Becton Dickinson). The percentage of apoptotic cells containing a sub-G1 DNA content was quantitated using the CellQuest program. The percentage of live cells in each phase of cell cycle was quantitated using the ModFit LT program.

[8] = system: COLO205 colon carcinoma cells; assay: COLO205 colon carcinoma tumor growth in athymic nude mice (Example 1)
Method: The colon carcinoma cell line COLO205 (available from NCI) were grown and maintained according to the supplier's methods. Briefly, COLO205 cells were cultured in high glucose DMEM/F12 (50:50) media containing 10% fetal bovine serum and 2.0 mM L-Glutamine. […] CPT-11 (Camptosar®) was obtained from Pharmacia & Upjohn.

[9] = system: HCT116 colon cancer cells; assay: Crystal violet cell survival assay; type: cell-based, human; details: SN-38 0.05 microgram/ml; FIG. 15
Method: A crystal violet assay was also used. […] The medium was removed the following day, and the cells were incubated for 24 or 48 hours in the fresh medium containing the various agents noted above. At the end of each treatment, the medium was removed and 100 μl of 0.5% crystal violet solution was added to each well and incubated at room temperature for 10 minutes before washing with water. After the wells were dry, 100 μl of ethanol containing 0.5 N HCL was added to each well. The plates were then read at 540 nm using a 96-well plate reader (Spectra Max 340pc, Molecular Devices Corporation, Sunnyvale, Calif.).

[10] = 24 hours of treatment, without Z-VAD

## CCc1c2c(nc3ccc(OC(=O)N4CCC(N5CCCCC5)CC4)cc13)-c1cc3c(c(=O)n1C2)COC(=O)[C@]3(O)CC.Cl.O.O.O [CPT-11, (4S)-4,11-diethyl-4-hydroxy-9-[(4-piperidino-piperidino)carbonyloxyl]-1H-pyrano[3′,4′:6,7]indolizino [1,2-b]quinoline-3,14(4H,12H)dione hydrochloride trihydrate]
[1]
  effect on Apo2L/TRAIL-mediated apoptosis (number of live cells): enhanced Apo2L/TRAIL-mediated apoptosis in vitro
HCT116 cells [2]; 2 hours of treatment
  morphological changes / cell killing: did not show any morphological changes
HCT116 cells [2]; 24 hours of treatment
  cell death: a few dead cells were clearly present
DR5 mRNA in HCT116 cells; 2 hours of treatment
  increase in DR5 mRNA expression compared with controls: not at 2 hours
DR5 mRNA in HCT116 cells; [10]
  increase in DR5 mRNA compared with controls: 2.5 fold
DR5 mRNA in HCT116 cells; time of exposure, hydrochloride trihydrate
  induction of DR5 expression by CPT-11 in vitro: can be observed after two hours exposure or incubation; also recorded: induced in vitro following exposure of cells to 50 microgram/ml CPT-11 for 6 hours
DR4 mRNA in HCT116 cells; 2 hours of treatment
  increase in DR4 mRNA compared with controls: not at 2 hours
DR4 mRNA in HCT116 cells; [10]
  increase in DR4 mRNA compared with controls: 2.5 fold
[3]
  p53 protein level: strong and sustained induction of p53 expression; also recorded: increase in p53 protein levels
[4]
  p53 protein level: strong and sustained induction of p53 expression; also recorded: increase in p53 protein levels
[5]; CPT-11 incubation
  time profile of changes in p21 protein levels: increases as early as 4 hours of treatment
[5]; HCT116 tumor cells, 24 hours
  p21 protein level: large induction of p21 protein
[6]
  p21 protein level: large induction of p21 protein
HCT116 cells [7]; 6 hours, control 30%
  cells in Go-G1 (cell cycle arrest): 76%
HCT116 cells [7]; 24 hours
  Go-G1 phase: clear reduction in Go-G1 phase
HCT116 cells [7]; 24 hours, control 19%
  cells in G2-M phase (arrest): 43%
HCT116 cells [7]; 24 hours, control cells 1%
  apoptosis (sub-G1 DNA content): 9%
[8]; 9 mice per group
  animals in which tumor growth resumed several days after the treatment period: 9 animals
[8]; s.c. COLO205 tumors, Apo-2L 30 mg/kg/day days 0-4 and 7-11, CPT-11 80 mg/kg/day days 0, 4, 8, 34 days
  effect on tumor growth: suppressed tumor growth during the treatment period

## CCc1c2c(nc3ccc(O)cc13)-c1cc3c(c(=O)n1C2)COC(=O)[C@]3(O)CC [SN38]
[9]
  tumor cell death with SN38 instead of CPT-11 in combination and sequential treatments with Apo2L/TRAIL: Increased tumor cell death

## CC(NC(=O)C(NC(=O)OCc1ccccc1)C(C)C)C(=O)NC(CC(=O)O)C(=O)CF (stereo not drawn) [Z-VAD] (Cbz-Val-Ala-Asp-CH2F; configuration not given here)
DR5 mRNA in HCT116 cells; 24 hours, with Z-VAD
  increase in DR5 mRNA in the presence of Z-VAD: did not block
DR4 mRNA in HCT116 cells; 24 hours, with Z-VAD
  increase in DR4 mRNA in the presence of Z-VAD: did not block
HCT116 cells [7]; HCT116
  effect of caspase inhibitor on Apo2L/TRAIL-mediated apoptosis: effectively blocked Apo2L/TRAIL-mediated apoptosis
